The record followed here is article PMC8086144, “A novel peptide antagonist of the human growth hormone receptor” (The Journal of Biological Chemistry, 2021).

For this assay, the target named is T1, hPRLR (Homo sapiens, UniProt P16471).
T1 construct: T84 cells express high levels of hPRLR relative to hGHR (>1300:1); host or cells: T84 (human colon cancer), MALME-3M (human melanoma)
T1 sequence (P16471 25-622): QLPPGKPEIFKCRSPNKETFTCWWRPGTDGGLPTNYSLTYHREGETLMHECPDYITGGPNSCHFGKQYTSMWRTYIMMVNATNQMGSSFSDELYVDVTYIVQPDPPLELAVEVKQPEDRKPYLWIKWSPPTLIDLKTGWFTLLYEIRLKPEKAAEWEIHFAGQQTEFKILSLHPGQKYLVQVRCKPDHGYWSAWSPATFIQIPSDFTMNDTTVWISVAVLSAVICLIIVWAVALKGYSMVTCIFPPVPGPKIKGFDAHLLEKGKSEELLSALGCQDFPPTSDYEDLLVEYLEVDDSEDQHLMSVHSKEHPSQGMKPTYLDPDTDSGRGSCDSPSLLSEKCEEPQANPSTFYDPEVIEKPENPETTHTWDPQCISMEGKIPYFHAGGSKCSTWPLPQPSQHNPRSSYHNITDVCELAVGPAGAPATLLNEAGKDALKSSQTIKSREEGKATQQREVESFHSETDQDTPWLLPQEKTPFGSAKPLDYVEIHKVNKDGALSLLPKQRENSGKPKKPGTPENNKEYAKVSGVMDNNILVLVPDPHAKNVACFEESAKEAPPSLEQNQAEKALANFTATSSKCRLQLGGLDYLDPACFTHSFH
The experiment in a line: hPRL-induced pSTAT5 in MALME-3M cells, Western blot. The class given is cell-based. Particulars: 2.5 nM hPRL, 20 min, S1H concentration not given. Here is the method: SK-MEL-28, MALME-3M, and T84 cells were grown and maintained in Eagle's Minimal Essential Medium. IM9 and L cells were grown in RPMI-1640 media and Dulbecco's modified Eagle's medium, respectively. All growth media was supplemented with 10% fetal bovine serum and 1× antibiotic-antimycotic […] solution. Cells were grown at 37 °C under a 5% CO2 atmosphere in a humidified incubator, and growth media was replaced every 48 h during incubation. No hGH was present in or added to the growth media unless specifically indicated. […]
Following treatment, the cells were harvested at the indicated time points, and the total protein was extracted. […] Sample protein concentration was quantified using a Bradford assay with bovine serum albumin as the protein standard. Absorbance at 595 nm was measured using a Spectramax 250 multimode plate reader (Molecular Devices) and processed using SoftmaxPro v4.7.1 software.
Cytosolic fractions from treated cells were thawed on ice, and 80 μg protein was loaded onto polyacrylamide gels for separation by SDS-PAGE. […] Chemiluminescence signals were detected using a GelDoc (BioRad) fluorescence imager. […]
Background: In western blotting, separated proteins are transferred to a membrane and probed.

Regarding `CC[C@H](C)[C@H](NC(=O)[C@H](Cc1ccc(O)cc1)NC(C)=O)C(=O)N1CCC[C@H]1C(=O)N[C@@H](CCCCN)C(=O)N[C@@H](CCC(=O)O)C(=O)N[C@@H](CCC(N)=O)C(=O)N[C@@H](CCCCN)C(=O)N[C@@H](Cc1ccc(O)cc1)C(=O)N[C@@H](CO)C(=O)N[C@@H](Cc1ccccc1)C(=O)N[C@@H](CC(C)C)C(=O)N[C@@H](CCC(N)=O)C(=O)N[C@@H](CC(N)=O)C(=O)N1CCC[C@H]1C(=O)N[C@@H](CCC(N)=O)C(=O)N[C@H](C(N)=O)[C@@H](C)O` [S1H], the “inhibition of hPRL-induced pSTAT5” value turned out to be 49%.
